Results as given in US7863476B1, “Multifunctional anionic surfactants” (Oil Chem Technologies, priority 2009, dated 2011).

How the values were obtained:
Assay type in all cases: physicochemical
[1] = Interfacial tension (IFT) by spinning drop interfacial tensiometer; settings: 0.10 wt % surfactant, 95° C., spinning 1 hour; for IFT, BRINE 1: Brine 1: NaCl 3.0%, CaCl2-2H2O 1.0%, MgCl2-6H2O 1.0%; for IFT, BRINE 2: Brine 2: NaCl 1.0%; for IFT, BRINE 3: Brine 3: NaCl 5.0%; for IFT, BRINE 4: Brine 4: NaCl 10%; for IFT, BRINE 5: Brine 5: NaCl 20%
Description: (§1) In all cases the surfactant formulation consisted of 30% by weight surfactant, 25% by weight ethylene glycol monobutyl ether (co-surfactant/solvent), and 45% by weight water. Also in all cases except where noted the surfactant formulation was added to the injection brine at a concentration of 0.10 weight percent. These examples use surfactants containing only ethylene oxide in the alcohol ether carboxylate although products containing propylene oxide and ethylene oxide give good results in certain applications.
(§2) Table II is the brine compositions that were used for the IFT testing to show the effect of total dissolved solids and divalent ion concentration on the IFT obtained using various surfactants.
All IFTs were obtained using a University of Texas Model 500 spinning drop interfacial tensiometer after spinning at 95° C. for 1 hour.

[2] = Brine solubilities of surfactant concentrates; settings: 5.0% by weight surfactant concentrate, 30° C.; for Brine solubility, BRINE 1: Brine 1: NaCl 3.0%, CaCl2-2H2O 1.0%, MgCl2-6H2O 1.0%; for Brine solubility, BRINE 2: Brine 2: NaCl 1.0%; for Brine solubility, BRINE 3: Brine 3: NaCl 5.0%; for Brine solubility, BRINE 4: Brine 4: NaCl 10%; for Brine solubility, BRINE 5: Brine 5: NaCl 20%
Description: as §1, §2
Table III compares the solubilities obtained with 5.0% by weight of various surfactant concentrates in the 5 brines at 30° C.

Static adsorption test = test: Static adsorption test
Excerpt: Table VII compares the adsorption of the composition of this invention surfactant B with a 1:1 molar mixture of surfactant D and surfactant E to show the effectiveness of having both the sulfonate and ether carboxylate on one molecule. 0.2 wt % surfactant D and 0.2 wt % surfactant E alone were also included to correct for the amount of each of these surfactants adsorbed. All tests were done using 0.20 wt % total surfactant in Brine 2. The static adsorption was run by mixing 50.0 grams of surfactant solution with 10.0 grams of 200 mesh beach sand on a wrist action shaker for 16 hours and then determining the amount of surfactant remaining compared to the original amount added.

[3] = 0.20 wt % total surfactant in Brine 2, 16 hours

Substance | IFT, BRINE 1 [1] | IFT, BRINE 2 [1] | IFT, BRINE 3 [1] | IFT, BRINE 4 [1] | IFT, BRINE 5 [1] | Brine solubility, BRINE 1 [2] | Brine solubility, BRINE 2 [2] | Brine solubility, BRINE 3 [2] | Brine solubility, BRINE 4 [2] | Brine solubility, BRINE 5 [2] | % adsorbed (Static adsorption test; [3]) | amount adsorbed in mg surfactant/gram sand (Static adsorption test; [3]) | Amount remaining (Static adsorption test; of 0.100 g original wt, 0.20 wt % total surfactant in Brine 2, 50.0 g solution with 10.0 g sand, 16 hours) | Adsorbed (Static adsorption test; of 0.100 g original wt, 0.20 wt % total surfactant in Brine 2, 16 hours)
Sodium salt of carboxylated oleyl alcohol with 2 moles of EO. [Surfactant C] | 0.769 mN/m | 0.070 mN/m | 0.090 mN/m | 0.122 mN/m | 0.256 mN/m | dis- | soluble | soluble | soluble | dis- |  |  |  | 
Sodium salt of carboxylated oleyl alcohol with 9 moles of EO. [Surfactant D] | 0.066 mN/m | 0.031 mN/m | 0.022 mN/m | 0.020 mN/m | 0.020 mN/m | soluble | soluble | soluble | soluble | soluble | 78% | 7.8 mg/g | 0.022 | 0.078
